Experimental data taken from patent US9695163B2, “Thiazole orexin receptor antagonists” (MERCK SHARP & DOHME CORP., priority 2013, dated 2017).

Tests used:
[1] = molecular target: human orexin-1 receptor (hOX1R) (Homo sapiens (Human), UniProt O43613); assay: FLIPR Ca2+ Flux Assay, CHO cells expressing human orexin-1 receptor; format: cell-based; conditions: agonist Ala-6,12 human orexin-A 70 pM
Text: The utility of the compounds in accordance with the present invention as orexin receptor OX1R and/or OX2R antagonists may be readily determined without undue experimentation by methodology well known in the art, including the “FLIPR Ca^2+ Flux Assay” (Okumura et al., Biochem. Biophys. Res. Comm. 2001, 280:976-981). Briefly, for intracellular calcium measurements, Chinese hamster ovary (CHO) cells expressing the orexin-1 receptor (e.g., rat or human) or the orexin-2 receptor (e.g., rat or human), are grown in Iscove's modified DMEM containing 2 mM L-glutamine, […], 1% hypoxanthine-thymidine supplement, 100 U/ml penicillin, 100 μg/ml streptomycin and 10% heat-inactivated fetal calf serum (FCS). The cells are seeded at approximately 20,000 cells per well into 384-well clear bottom sterile plates coated with poly-D-lysine. The seeded plates are incubated overnight at 37° C. and 5% CO2. Human ala-6,12 orexin-A can be used as the agonist and prepared as a 1 mM stock solution in 1% bovine serum albumin (BSA) and diluted in assay buffer (HBSS containing 20 mM HEPES, 0.1% BSA and 2.5 mM probenecid, pH7.4) for use in the assay at a final concentration of 70 pM. Test compounds are prepared as 10 mM stock solution in DMSO, then diluted in 384-well plates, first in DMSO, then in assay buffer. On the day of the assay, cells are washed 3 times with 100 μl assay buffer and then incubated for 60 minutes (37° C., 5% CO2) in 60 μl assay buffer containing 1 μM Fluo-4 AM ester, 0.02% pluronic acid, and 1% BSA. The dye loading solution is then aspirated and cells are washed 3 times with 100 μl assay buffer. 30 μl of that same buffer is left in each well. Within the Fluorescent Imaging Plate Reader (FLIPR, Molecular Devices), test compounds are added to the plate in a volume of 25 μl, incubated for 5 minutes, and then 25 μl of agonist is added. Fluorescence is measured for each well at 1 second intervals for 5 minutes, and the height of each fluorescence peak is compared to the height of the fluorescence peak induced by 70 pM of agonist ala-6,12 orexin-A with buffer in place of test compound. IC50 value for the test compound is determined to be the concentration of compound needed to inhibit 50% of the agonist response. Alternatively, compound potency can be assessed using a radioligand binding assay (described in Bergman et. al., Bioorg. Med. Chem. Lett. 2008, 18:1425-1430) in which the inhibition constant (Ki) is determined in membranes prepared from CHO cells expressing either the OX1 or OX2 receptor. The intrinsic orexin receptor antagonist activity of a compound of the present invention may be determined by these assays.

[2] = molecular target: human orexin-2 receptor (hOX2R) (Homo sapiens (Human), UniProt O43614); assay: FLIPR Ca2+ Flux Assay, CHO cells expressing human orexin-2 receptor; format: cell-based; conditions: agonist Ala-6,12 human orexin-A 70 pM
Procedure: Briefly, for intracellular calcium measurements, Chinese hamster ovary (CHO) cells expressing the orexin-1 receptor (e.g., rat or human) or the orexin-2 receptor (e.g., rat or human), are grown in Iscove's modified DMEM containing 2 mM L-glutamine, […], 1% hypoxanthine-thymidine supplement, 100 U/ml penicillin, 100 μg/ml streptomycin and 10% heat-inactivated fetal calf serum (FCS). The cells are seeded at approximately 20,000 cells per well into 384-well clear bottom sterile plates coated with poly-D-lysine. The seeded plates are incubated overnight at 37° C. and 5% CO2. Human ala-6,12 orexin-A can be used as the agonist and prepared as a 1 mM stock solution in 1% bovine serum albumin (BSA) and diluted in assay buffer (HBSS containing 20 mM HEPES, 0.1% BSA and 2.5 mM probenecid, pH7.4) for use in the assay at a final concentration of 70 pM. Test compounds are prepared as 10 mM stock solution in DMSO, then diluted in 384-well plates, first in DMSO, then in assay buffer. On the day of the assay, cells are washed 3 times with 100 μl assay buffer and then incubated for 60 minutes (37° C., 5% CO2) in 60 μl assay buffer containing 1 μM Fluo-4 AM ester, 0.02% pluronic acid, and 1% BSA. The dye loading solution is then aspirated and cells are washed 3 times with 100 μl assay buffer. 30 μl of that same buffer is left in each well. Within the Fluorescent Imaging Plate Reader (FLIPR, Molecular Devices), test compounds are added to the plate in a volume of 25 μl, incubated for 5 minutes, and then 25 μl of agonist is added. Fluorescence is measured for each well at 1 second intervals for 5 minutes, and the height of each fluorescence peak is compared to the height of the fluorescence peak induced by 70 pM of agonist ala-6,12 orexin-A with buffer in place of test compound. IC50 value for the test compound is determined to be the concentration of compound needed to inhibit 50% of the agonist response. Alternatively, compound potency can be assessed using a radioligand binding assay (described in Bergman et. al., Bioorg. Med. Chem. Lett. 2008, 18:1425-1430) in which the inhibition constant (Ki) is determined in membranes prepared from CHO cells expressing either the OX1 or OX2 receptor. The intrinsic orexin receptor antagonist activity of a compound of the present invention may be determined by these assays. […]

Sequence of human orexin-1 receptor (hOX1R) (O43613 whole entry): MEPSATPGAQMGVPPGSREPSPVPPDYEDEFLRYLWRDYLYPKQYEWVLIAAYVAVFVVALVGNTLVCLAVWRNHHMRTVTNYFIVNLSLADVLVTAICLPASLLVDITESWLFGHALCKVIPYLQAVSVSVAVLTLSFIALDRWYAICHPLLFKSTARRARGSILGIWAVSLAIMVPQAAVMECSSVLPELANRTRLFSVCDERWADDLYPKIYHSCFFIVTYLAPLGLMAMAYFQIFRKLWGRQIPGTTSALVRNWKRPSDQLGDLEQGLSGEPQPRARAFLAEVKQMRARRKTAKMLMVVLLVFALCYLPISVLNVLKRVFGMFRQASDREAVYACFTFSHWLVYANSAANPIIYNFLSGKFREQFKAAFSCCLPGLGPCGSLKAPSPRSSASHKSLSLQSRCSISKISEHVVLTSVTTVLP
Sequence of human orexin-2 receptor (hOX2R) (O43614 whole entry): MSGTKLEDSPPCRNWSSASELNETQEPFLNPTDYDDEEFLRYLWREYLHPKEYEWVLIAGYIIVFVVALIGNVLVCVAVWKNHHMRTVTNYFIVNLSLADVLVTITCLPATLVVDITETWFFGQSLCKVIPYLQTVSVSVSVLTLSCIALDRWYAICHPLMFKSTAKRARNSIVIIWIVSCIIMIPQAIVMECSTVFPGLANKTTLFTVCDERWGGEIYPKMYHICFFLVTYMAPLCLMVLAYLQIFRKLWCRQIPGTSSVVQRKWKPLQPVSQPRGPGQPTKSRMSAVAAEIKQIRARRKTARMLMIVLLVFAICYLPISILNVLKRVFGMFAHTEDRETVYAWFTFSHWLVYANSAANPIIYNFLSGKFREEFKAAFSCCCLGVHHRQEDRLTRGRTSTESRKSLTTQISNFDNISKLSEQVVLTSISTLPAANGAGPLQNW

| SMILES | IC50 [1] [nM] | IC50 [2] [nM] |
| --- | --- | --- |
| Cc1sc([C@@H]2CC[C@@H](C)N(C(=O)c3ccccc3CS(C)(=O)=O)C2)nc1C(C)(C)O [Example 26, ((2R,5R)-5-(4-(2-Hydroxypropan-2-yl)-5-methylthiazol-2-yl)-2-methylpiperidin-1-yl)(2-((methylsulfonyl)methyl)phenyl)methanone] | > 10000 | 32 |
| C[C@@H]1CC[C@@H](c2csc(C(C)(C)O)n2)CN1C(=O)c1ccccc1C1(C#N)CC1 [Example 30, 1-(2-((2R,5R)-5-(2-(2-hydroxypropan-2-yl)thiazol-4-yl)-2-methylpiperidine-1-carbonyl)phenyl)cyclopropanecarbonitrile] | 1200 | 13 |
| C[C@@H]1CC[C@@H](c2nc(C(C)(C)O)cs2)CN1C(=O)c1ccsc1-c1ncccn1 [Example 18, ((2R,5R)-5-(4-(2-Hydroxypropan-2-yl)thiazol-2-yl)-2-methylpiperidin-1-yl)(2-(pyrimidin-2-yl)thiophen-3-yl)methanone] | > 10000 | 114 |
| C[C@@H]1CC[C@@H](c2ncc(C(C)(C)O)s2)CN1C(=O)c1ccccc1-n1nccn1 [Example 2, (2-(2H-1,2,3-Triazol-2-yl)phenyl)((2R,5R)-5-(5-(2-hydroxypropan-2-yl)thiazol-2-yl)-2-methylpiperidin-1-yl)methanone] | > 10000 | 67 |
| C[C@@H]1CC[C@@H](c2csc(C(C)(C)O)n2)CN1C(=O)c1ccccc1-n1nccn1 [Example 36, (2-(2H-1,2,3-triazol-2-yl)phenyl)((2R,5R)-5-(2-(2-hydroxypropan-2-yl)thiazol-4-yl)-2-methylpiperidin-1-yl)methanone] | 2300 | 20 |
| Cc1sc([C@@H]2CC[C@@H](C)N(C(=O)c3ccccc3-n3ncnn3)C2)nc1C(C)(C)O [Example 24, (2-(2H-Tetrazol-2-yl)phenyl)((2R,5R)-5-(4-(2-hydroxypropan-2-yl)-5-methylthiazol-2-yl)-2-methylpiperidin-1-yl)methanone] | 2650 | 19 |
| C[C@@H]1CC[C@@H](c2nc([C@@H](O)C(F)F)cs2)CN1C(=O)c1ccccc1-n1nccn1 [Example 8] | > 10000 | 133 |
| C[C@@H]1CC[C@@H](c2csc(C(C)(C)O)n2)CN1C(=O)c1ccccc1-c1ncccn1 [Example 33, ((2R,5R)-5-(2-(2-hydroxypropan-2-yl)thiazol-4-yl)-2-methylpiperidin-1-yl)(2-(pyrimidin-2-yl)phenyl)methanone] | > 10000 | 102 |
| C[C@@H]1CC[C@@H](c2nc(C(C)(C)O)cs2)CN1C(=O)c1ccsc1-n1nccn1 [Example 10, (2-(2H-1,2,3-triazol-2-yl)thiophen-3-yl)((2R,5R)-5-(4-(2-hydroxypropan-2-yl)thiazol-2-yl)-2-methylpiperidin-1-yl)methanone] | 7400 | 19 |
| C[C@@H]1CC[C@@H](c2csc(C(C)(C)O)n2)CN1C(=O)c1ccccc1CS(C)(=O)=O [Example 34, ((2R,5R)-5-(2-(2-hydroxypropan-2-yl)thiazol-4-yl)-2-methylpiperidin-1-yl)(2-((methylsulfonyl)methyl)phenyl)methanone] | > 10000 | 40 |
| C[C@@H]1CC[C@@H](c2nc(C(C)(C)O)cs2)CN1C(=O)c1ccccc1-n1nccn1 [Example 5] | 2250 | 17 |
| C[C@@H]1CC[C@@H](c2csc(C(C)(C)O)n2)CN1C(=O)c1cscc1-n1nccn1 [Example 35, (4-(2H-1,2,3-triazol-2-yl)thiophen-3-yl)((2R,5R)-5-(2-(2-hydroxypropan-2-yl)thiazol-4-yl)-2-methylpiperidin-1-yl)methanone] | > 10000 | 14 |
| C[C@@H]1CC[C@@H](c2nc(C(C)(C)O)cs2)CN1C(=O)c1ccccc1C1(C#N)CC1 [Example 11, 1-(2-((2R,5R)-5-(4-(2-Hydroxypropan-2-yl)thiazol-2-yl)-2-methylpiperidine-1-carbonyl)phenyl)cyclopropanecarbonitrile] | 950 | 15 |
| Cc1sc([C@@H]2CC[C@@H](C)N(C(=O)c3ccsc3-n3nccn3)C2)nc1C(C)(C)O [Example 20, (2-(2H-1,2,3-triazol-2-yl)thiophen-3-yl)((2R,5R)-5-(4-(2-hydroxypropan-2-yl)-5-methylthiazol-2-yl)-2-methylpiperidin-1-yl)methanone] | 970 | 12 |
| C[C@@H]1CC[C@@H](c2nc(C(C)(C)O)cs2)CN1C(=O)c1ccc(F)cc1-n1nccn1 [Example 13, (4-fluoro-2-(2H-1,2,3-triazol-2-yl)phenyl)((2R,5R)-5-(4-(2-hydroxypropan-2-yl)thiazol-2-yl)-2-methylpiperidin-1-yl)methanone] | 2250 | 19 |
| Cc1sc([C@@H]2CC[C@@H](C)N(C(=O)c3cscc3-n3nccn3)C2)nc1C(C)(C)O [Example 21, (4-(2H-1,2,3-triazol-2-yl)thiophen-3-yl)((2R,5R)-5-(4-(2-hydroxypropan-2-yl)-5-methylthiazol-2-yl)-2-methylpiperidin-1-yl)methanone] | 2800 | 30 |
| Cc1sc([C@@H]2CC[C@@H](C)N(C(=O)c3ccccc3C3(C#N)CC3)C2)nc1C(C)(C)O [Example 25, 1-(2-((2R,5R)-5-(4-(2-Hydroxypropan-2-yl)-5-methylthiazol-2-yl)-2-methylpiperidine-1-carbonyl)phenyl)cyclopropanecarbonitrile] | 240 | 12 |
| Cc1sc([C@@H]2CC[C@@H](C)N(C(=O)c3ccc(F)cc3-n3nccn3)C2)nc1C(C)(C)O [Example 22, (4-fluoro-2-(2H-1,2,3-triazol-2-yl)phenyl)((2R,5R)-5-(4-(2-hydroxypropan-2-yl)-5-methylthiazol-2-yl)-2-methylpiperidin-1-yl)methanone] | 930 | 20 |
| C[C@@H]1CC[C@@H](c2csc(C(C)(C)O)n2)CN1C(=O)c1ccc(F)cc1-n1nccn1 [Example 38, (4-Fluoro-2-(2H-1,2,3-triazol-2-yl)phenyl)((2R,5R)-5-(2-(2-hydroxypropan-2-yl)thiazol-4-yl)-2-methylpiperidin-1-yl)methanone] | 2050 | 14 |
| C[C@@H]1CC[C@@H](c2csc(C(C)(C)O)n2)CN1C(=O)c1ccccc1-n1ncnn1 [Example 29, (2-(2H-Tetrazol-2-yl)phenyl)((2R,5R)-5-(2-(2-hydroxypropan-2-yl)thiazol-4-yl)-2-methylpiperidin-1-yl)methanone] | – | 15 |
